# Laboratory results reported in ChEMBL document CHEMBL5096171, “Synthesis and Biological Evaluation of PSMA Ligands with Aromatic Residues and Fluorescent Conjugates Based on Them” (J Med Chem, 2021).
# Key:
# [1] = target: Glutamate carboxypeptidase 2 (Homo sapiens, UniProt Q04609); test: Inhibition of PSMA derived from human LNCaP cell lysate assessed as inhibition of NAAG hydrolysis incubated for 2 hrs in presence of NAAG by Amplex Red assay; assay type: subcellular
# [2] = Drug uptake in human 22Rv1 cells assessed as drug accumulation by measuring fluorescence signal at 4 uM incubated for 30 mins by flow cytometry; assay type: ADME, cell-based; conditions: cwr22r, 0.5 h
# [3] = Drug uptake in human LNCaP cells assessed as drug accumulation by measuring fluorescence signal at 4 uM incubated for 30 mins by flow cytometry; assay type: ADME, cell-based; conditions: 0.5 h
# PC-3 = test: Cytotoxicity against human PC-3 cells assessed as reduction in cell viability incubated for 5 days by MTT assay; assay type: functional; conditions: PC-3, 120 h, time 5 day
# LNCaP = test: Cytotoxicity against human LNCaP cells assessed as reduction in cell viability incubated for 5 days by MTT assay; assay type: functional; conditions: 120 h, time 5 day
# [4] = Drug uptake in human PC-3 cells assessed as drug accumulation by measuring fluorescence signal at 4 uM incubated for 30 mins by flow cytometry; assay type: ADME, cell-based; conditions: pc-3, 0.5 h
# MCF7 = test: Cytotoxicity against human MCF7 cells assessed as cell growth inhibition incubated for 5 days by MTT assay; assay type: functional; conditions: MCF7, 120 h, time 5 day
# [5] = Cytotoxicity against human WI-38 VA13 cells assessed as cell growth inhibition incubated for 5 days by MTT assay; assay type: toxicity, cell-based; conditions: time 5 day
# A549 = test: Cytotoxicity against human A549 cells assessed as cell growth inhibition incubated for 5 days by MTT assay; assay type: functional; conditions: A549, 120 h, time 5 day
# [6] = Cytotoxicity against HEK293T cells assessed as cell growth inhibition incubated for 5 days by MTT assay; assay type: toxicity, cell-based, HEK-293T; conditions: human, time 5 day
# [7] = Chronic toxicity in Soviet Chinchilla rabbit assessed as change in kidney histology at 120 to 243 mg/kg, iv administered once every 3 weeks; assay type: organism-based, Oryctolagus cuniculus; conditions: in vivo, 504 h, dose 120-243 mg/kg
# [8] = Chronic toxicity in Soviet Chinchilla rabbit assessed as change in lung histology at 120 to 243 mg/kg, iv administered once every 3 weeks; assay type: organism-based, Oryctolagus cuniculus; conditions: in vivo, 504 h, dose 120-243 mg/kg
# [9] = Chronic toxicity in Soviet Chinchilla rabbit assessed as signs of intoxication at 120 to 243 mg/kg, iv administered once every 3 weeks; assay type: organism-based, Oryctolagus cuniculus; conditions: in vivo, 504 h, dose 120-243 mg/kg
# [10] = Chronic toxicity in Soviet Chinchilla rabbit assessed as change in spleen histology at 120 to 243 mg/kg, iv administered once every 3 weeks; assay type: organism-based, Oryctolagus cuniculus; conditions: in vivo, 504 h, dose 120-243 mg/kg
# [11] = Chronic toxicity in Soviet Chinchilla rabbit assessed as change in blood albumin content at 120 to 243 mg/kg, iv administered once every 3 weeks; assay type: organism-based, Oryctolagus cuniculus; conditions: in vivo, 504 h, dose 120-243 mg/kg
# [12] = Chronic toxicity in Soviet Chinchilla rabbit assessed as change in liver histology at 120 to 243 mg/kg, iv administered once every 3 weeks; assay type: organism-based, Oryctolagus cuniculus; conditions: in vivo, 504 h, dose 120-243 mg/kg
# [13] = Chronic toxicity in Soviet Chinchilla rabbit assessed as change in heart histology at 120 to 243 mg/kg, iv administered once every 3 weeks; assay type: organism-based, Oryctolagus cuniculus; conditions: in vivo, 504 h, dose 120-243 mg/kg
# [14] = Chronic toxicity in Soviet Chinchilla rabbit assessed as change in brain histology at 120 to 243 mg/kg, iv administered once every 3 weeks; assay type: organism-based, Oryctolagus cuniculus; conditions: in vivo, 504 h, dose 120-243 mg/kg
# Glutamate carboxypeptidase 2, sequence (Q04609 whole entry): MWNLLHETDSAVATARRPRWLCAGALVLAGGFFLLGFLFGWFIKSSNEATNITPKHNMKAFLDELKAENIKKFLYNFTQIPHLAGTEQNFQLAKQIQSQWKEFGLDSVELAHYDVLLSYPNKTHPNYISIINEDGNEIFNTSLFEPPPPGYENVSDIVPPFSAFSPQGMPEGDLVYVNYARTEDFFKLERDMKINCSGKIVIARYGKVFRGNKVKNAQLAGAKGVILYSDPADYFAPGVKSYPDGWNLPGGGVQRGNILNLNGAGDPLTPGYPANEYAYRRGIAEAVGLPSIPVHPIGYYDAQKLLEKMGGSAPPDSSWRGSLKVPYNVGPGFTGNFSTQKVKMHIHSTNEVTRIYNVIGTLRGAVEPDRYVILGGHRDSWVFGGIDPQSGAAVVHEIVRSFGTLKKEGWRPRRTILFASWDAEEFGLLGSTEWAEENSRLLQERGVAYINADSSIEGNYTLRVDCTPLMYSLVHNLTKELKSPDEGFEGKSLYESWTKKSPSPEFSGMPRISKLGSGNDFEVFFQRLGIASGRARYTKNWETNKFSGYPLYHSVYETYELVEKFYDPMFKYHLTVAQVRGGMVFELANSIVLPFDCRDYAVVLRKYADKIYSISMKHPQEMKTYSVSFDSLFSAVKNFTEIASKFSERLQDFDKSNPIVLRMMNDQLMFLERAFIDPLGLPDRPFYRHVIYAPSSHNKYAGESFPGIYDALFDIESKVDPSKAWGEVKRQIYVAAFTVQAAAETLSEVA
IC50 [1] [µM],Structure (SMILES),CC50 (MCF7) [µM],CC50 at 120 h [5] [µM],CC50 (A549) [µM],CC50 at 120 h [6] [µM],also measured
0.046,[N-]=[N+]=NCCCNC(=O)[C@@H](Cc1ccccc1)NC(=O)[C@@H](Cc1ccccc1)NC(=O)CCC(=O)NCCCCCC(=O)N(CCCC[C@H](NC(=O)N[C@@H](CCC(=O)O)C(=O)O)C(=O)O)Cc1cccc(Cl)c1,,,,,
,CN1/C(=C/C=C/C=C/C2=[N+](CCCCCC(=O)O)c3ccc(S(=O)(=O)[O-])cc3C2(C)C)C(C)(C)c2cc(S(=O)(=O)O)ccc21,,,,,Drug uptake [2]: 57.5%; Drug uptake [3]: 98.4%; CC50 (PC-3): > 100 µM; CC50 (LNCaP): > 100 µM; Drug uptake [4]: 41.1%
0.226,[N-]=[N+]=NCCCNC(=O)[C@@H](Cc1ccccc1)NC(=O)[C@@H](Cc1ccccc1)NC(=O)CCC(=O)NCCCCCC(=O)N(CCCC[C@H](NC(=O)N[C@@H](CCC(=O)O)C(=O)O)C(=O)O)Cc1ccc(Cl)cc1,,,,,
0.05,[N-]=[N+]=NCCCNC(=O)[C@H](Cc1ccccc1)NC(=O)[C@H](Cc1ccccc1)NC(=O)CCC(=O)NCCCCCC(=O)N(CCCC[C@H](NC(=O)N[C@@H](CCC(=O)O)C(=O)O)C(=O)O)Cc1ccc(Br)cc1,> 100,> 100,> 100,> 100,
0.055,[N-]=[N+]=NCCCNC(=O)[C@H](Cc1ccccc1)NC(=O)[C@H](Cc1ccccc1)NC(=O)CCC(=O)NCCCCCC(=O)N(CCCC[C@H](NC(=O)N[C@@H](CCC(=O)O)C(=O)O)C(=O)O)Cc1ccc(Cl)cc1,,,,,
0.003,[N-]=[N+]=NCCCNC(=O)[C@H](Cc1ccc(O)cc1)NC(=O)[C@H](Cc1ccccc1)NC(=O)CCC(=O)NCCCCCC(=O)N(CCCC[C@H](NC(=O)N[C@@H](CCC(=O)O)C(=O)O)C(=O)O)Cc1cccc(Cl)c1,> 100,> 100,> 100,> 100,Ki [1]: 0.001 µM; CC50 (PC-3): > 100 µM; CC50 (LNCaP): > 100 µM
,[N-]=[N+]=NCCCNC(=O)[C@H](Cc1ccccc1)NC(=O)[C@H](Cc1ccccc1)NC(=O)CCC(=O)NCCCCCC(=O)NCCCC[C@H](NC(=O)N[C@@H](CCC(=O)O)C(=O)O)C(=O)O,> 100,> 100,> 100,62,
0.107,[N-]=[N+]=NCCCNC(=O)[C@@H](Cc1ccc(O)cc1)NC(=O)[C@@H](Cc1ccccc1)NC(=O)CCC(=O)NCCCCCC(=O)N(CCCC[C@H](NC(=O)N[C@@H](CCC(=O)O)C(=O)O)C(=O)O)Cc1cccc(Cl)c1,,,,,
0.017,[N-]=[N+]=NCCCNC(=O)[C@H](Cc1ccc(O)cc1)NC(=O)[C@H](Cc1ccccc1)NC(=O)CCC(=O)NCCCCCC(=O)N(CCCC[C@H](NC(=O)N[C@@H](CCC(=O)O)C(=O)O)C(=O)O)Cc1ccc(Br)cc1,> 100,> 100,> 100,> 100,
0.063,[N-]=[N+]=NCCCNC(=O)[C@H](Cc1ccccc1)NC(=O)[C@H](Cc1ccccc1)NC(=O)CCC(=O)NCCCCCC(=O)N(CCCC[C@H](NC(=O)N[C@@H](CCC(=O)O)C(=O)O)C(=O)O)Cc1ccc(Cl)c(F)c1,> 100,> 100,> 100,71,
0.046,[N-]=[N+]=NCCCNC(=O)[C@H](Cc1ccc(O)cc1)NC(=O)[C@H](Cc1ccccc1)NC(=O)CCC(=O)NCCCCCC(=O)N(CCCC[C@H](NC(=O)N[C@@H](CCC(=O)O)C(=O)O)C(=O)O)Cc1ccc(Cl)cc1,,,,,
0.175,[N-]=[N+]=NCCCNC(=O)[C@H](Cc1ccccc1)NC(=O)[C@H](Cc1ccccc1)NC(=O)CCC(=O)NCCCC(=O)N(CCCC[C@H](NC(=O)N[C@@H](CCC(=O)O)C(=O)O)C(=O)O)Cc1ccccc1,> 100,> 100,> 100,> 100,
0.089,[N-]=[N+]=NCCCNC(=O)[C@@H](Cc1ccc(O)c(Br)c1)NC(=O)[C@@H](Cc1ccccc1)NC(=O)CCC(=O)NCCCCCC(=O)N(CCCC[C@H](NC(=O)N[C@@H](CCC(=O)O)C(=O)O)C(=O)O)Cc1ccc(Br)cc1,,,,,
0.062,[N-]=[N+]=NCCCNC(=O)[C@H](Cc1ccc(O)cc1)NC(=O)[C@H](Cc1ccccc1)NC(=O)CCC(=O)NCCCCCC(=O)N(CCCC[C@H](NC(=O)N[C@@H](CCC(=O)O)C(=O)O)C(=O)O)Cc1ccc(Cl)c(F)c1,> 100,> 100,> 100,> 100,
0.028,[N-]=[N+]=NCCCNC(=O)[C@H](Cc1ccccc1)NC(=O)[C@H](Cc1ccccc1)NC(=O)CCC(=O)NCCCCCC(=O)N(CCCC[C@H](NC(=O)N[C@@H](CCC(=O)O)C(=O)O)C(=O)O)Cc1ccccc1,> 100,> 100,> 100,114,
,NCCCC[C@H](NC(=O)N[C@@H](CCC(=O)O)C(=O)O)C(=O)O,> 100,> 100,> 100,> 100,
0.294,[N-]=[N+]=NCCCNC(=O)[C@@H](Cc1ccccc1)NC(=O)[C@@H](Cc1ccccc1)NC(=O)CCC(=O)NCCCCCC(=O)N(CCCC[C@H](NC(=O)N[C@@H](CCC(=O)O)C(=O)O)C(=O)O)Cc1ccc(Cl)c(F)c1,> 100,> 100,> 100,51,
0.08,[N-]=[N+]=NCCCNC(=O)[C@@H](Cc1ccc(O)c(Br)c1)NC(=O)[C@@H](Cc1ccccc1)NC(=O)CCC(=O)NCCCCCC(=O)N(CCCC[C@H](NC(=O)N[C@@H](CCC(=O)O)C(=O)O)C(=O)O)Cc1cccc(Cl)c1,,,,,
0.027,[N-]=[N+]=NCCCNC(=O)[C@@H](Cc1ccc(O)cc1)NC(=O)[C@@H](Cc1ccccc1)NC(=O)CCC(=O)NCCCCCC(=O)N(CCCC[C@H](NC(=O)N[C@@H](CCC(=O)O)C(=O)O)C(=O)O)Cc1ccc(Cl)cc1,,,,,
0.038,[N-]=[N+]=NCCCNC(=O)[C@H](Cc1ccccc1)NC(=O)[C@H](Cc1ccccc1)NC(=O)CCC(=O)NCCCCCC(=O)N(CCCC[C@H](NC(=O)N[C@@H](CCC(=O)O)C(=O)O)C(=O)O)Cc1cccc(Cl)c1,,,,,
0.319,[N-]=[N+]=NCCCNC(=O)[C@@H](Cc1ccccc1)NC(=O)[C@@H](Cc1ccccc1)NC(=O)CCC(=O)NCCCCCC(=O)N(CCCC[C@H](NC(=O)N[C@@H](CCC(=O)O)C(=O)O)C(=O)O)Cc1ccc(Br)cc1,> 100,> 100,> 100,88,
3.16,[N-]=[N+]=NCCCNC(=O)[C@@H](Cc1ccc(O)cc1)NC(=O)[C@@H](Cc1ccccc1)NC(=O)CCC(=O)NCCCCCC(=O)N(CCCC[C@H](NC(=O)N[C@@H](CCC(=O)O)C(=O)O)C(=O)O)Cc1ccc(Br)cc1,,,,,
0.108,[N-]=[N+]=NCCCNC(=O)[C@@H](Cc1ccc(O)cc1)NC(=O)[C@@H](Cc1ccccc1)NC(=O)CCC(=O)NCCCCCC(=O)N(CCCC[C@H](NC(=O)N[C@@H](CCC(=O)O)C(=O)O)C(=O)O)Cc1ccc(Cl)c(F)c1,,,,,
0.043,[N-]=[N+]=NCCCNC(=O)[C@H](Cc1ccccc1)NC(=O)[C@H](Cc1ccccc1)NC(=O)CCC(=O)NCCCCCC(=O)N(CCCC[C@H](NC(=O)N[C@@H](CCC(=O)O)C(=O)O)C(=O)O)Cc1ccc(Cl)cc1F,> 100,> 100,> 100,> 100,
,CN1/C(=C/C=C2C=C(/C=C/C3=[N+](CCCCCC(=O)O)c4ccc(S(=O)(=O)[O-])cc4C3(C)C)CCC/2)C(C)(C)c2cc(S(=O)(=O)O)ccc21,,,,,Activity [7]: Non-Toxic; Activity [8]: Non-Toxic; Activity [9]: Non-Toxic; Activity [10]: Non-Toxic; Activity [11]: Toxic; CC50 (PC-3): > 100 µM; Activity [12]: Non-Toxic; Activity [13]: Non-Toxic; CC50 (LNCaP): > 100 µM; Activity [14]: Non-Toxic
